Data on 1 compound can be found in patent US20050112204A1, “Pharmaceutical formulations” (priority 2003, published 2005).

Values after ≈ are worked out from the molar mass of the structure shown. A value given as a limit tells only on which side of the number the result lay.

Holding throughout (format): physicochemical
Series [1] can be described thus: aqueous solubility of voriconazole (previously measured data). As to conditions: water, aqueous buffer; pH 7; 22° C.
A short description of series [2]: stability of voriconazole in water. As to conditions: an inactive enantiomer is formed from recombination of the retro-aldol products of hydrolysis.
Series [3] is described as follows: visual solubility of voriconazole in water and aqueous poloxamer F127 solutions (Example 2). As to conditions: for visual solubility in water: ambient conditions; for solubility: aqueous poloxamer F127 solution, aqueous with cosolvent or surfactant or cyclodextrin, thermodynamic from solid, read-out: soluble up to. The procedure: Voriconazole aqueous solutions of 0.5 and 1 mg/ml were prepared in water (20 ml). Corresponding aqueous solutions of 2, 3 and 4 mg/ml were prepared in aqueous poloxamer solutions (20 ml), as follows: The samples were prepared in 50 ml glass vials, and sonicated in an ultrasonic bath for 30 minutes. The solutions were allowed to cool, then visually assessed immediately and after 18 hours. The solubilization factor on the y-axis is a code for the level of solubility visually observed.

Regarding `C[C@@H](c1ncncc1F)[C@](O)(Cn1cncn1)c1ccc(F)cc1F` [voriconazole, (2R,3S)-2-(2,4-Difluorophenyl)-3-(5-fluoro-4-pyrimidinyl)-1-(1H-1,2,4-triazol-1-yl)-butan-2-ol], the solubility in series [1] was 610 µg/mL (≈ 1.75 mM); in series [3] (in 10% F127 solution) it was at most 2000 µg/mL; in series [3] (in 15% F127 solution), at most 3000 µg/mL. Besides, the stability in water result in series [2] is listed as “not stable in water”. Further, the “visual solubility in water” value is “virtually complete solubility” in series [3] (0.5 mg/ml in water) and “clearly insoluble” in series [3] (1 mg/ml in water). Moreover, the “increase in solubility in comparison with water alone” value in series [3] (10% F127 solution) is “three to four fold”; in series [3] (15% F127 solution) it was “five to six fold”.
